From patent US20150018384A1, “TREATMENT FOR HIGH CHOLESTEROL” (FibroGen, Inc., priority 2012, published 2015)

Key:
PHD1 = PHD1 (Homo sapiens, UniProt Q96KS0); assay: HIF prolyl hydroxylase enzyme assay, PHD1; type: biochemical
Text: (§1) Suitable assay methods are well known in the art.

PHD3 = PHD3 (Homo sapiens, UniProt Q9H6Z9); assay: HIF prolyl hydroxylase enzyme assay, PHD3; type: biochemical
Text: as §1

[1] = tested on: non-dialysis chronic kidney disease (CKD) patients with anemia; assay: Study 1: Phase 2 study of compound A in non-dialysis CKD patients with anemia; type: in vivo, human
Protocol: The primary objectives of this study were to evaluate the efficacy and safety of the compound in the correction of anemia (i.e. increasing hemoglobin levels) in non-dialysis CKD patients. The study included six dosing cohorts of approximately 24 subjects each. […] Cohort A and cohort B both received a weight-adjusted dose of approximately 1 mg/kg, three times a week for 16 weeks; the dosing in cohort B was reduced to twice a week once anemia was corrected. Cohort C and cohort D received a fixed dose of 50 mg or 100 mg, respectively, three times a week, for 24 weeks. Cohort E received a weight-adjusted dose of approximately 1 mg/kg twice a week, reduced to once a week once anemia was corrected. Cohort F received a fixed dose of 70 mg, three times a week.
Total cholesterol and lipid panels were measured by standard procedures.
Total cholesterol was measured from all subjects in Study 1 or Study 2 as part of the chemistry panel at prespecified time points. […] Total cholesterol decreased initially with treatment, reached a plateau where it remained during treatment, and then returned to baseline after treatment ends.
Frozen serum samples, collected from subjects in Study 1 or Study 2, were selected for the lipid panel analysis based on the following criteria: 1) with matched baseline (D1W1) and; 2) at least one other time point. The complete lipid panel includes: total cholesterol (TC), HDL, LDL-measured, Triglycerides and VLDL (Calculated). Ratio of HDL/LDL or LDL/HDL were analyzed.
A total of n=9 subjects samples were selected and assayed for the complete lipid panel as described above. Subjects on this study protocol were not required to fast nor have any diet restrictions.

healthy subjects = assay: Circulating total cholesterol and LDL-C in healthy subjects dosed twice per week; type: in vivo, human; settings: 1.88 mg/Kg orally twice per week, average (SD), n=6
Protocol: Subjects were fasted overnight prior on subsequent dosing days. Overnight fasting was not required on non-dosing days. The samples had been stored frozen at −70° C. for up to 6 years, and had undergone up to two thaw/freeze cycles prior to testing. Results are presented separately for samples collected during fasting: Day 1 (0, 1, 2 hrs post-dose), Day 2 (24 hrs), Day 3 (72 hrs), Day 7 (168 hrs), Day 10 (240 hrs) and Day 17 (408 hours).
Samples were analyzed using validated assays on a Roche Modular system. Total cholesterol was measured using the CHOD-PAP reagent from Roche, Cat. No. 11875540216. HDL cholesterol was measured using reagents from Polymedco, Cat. No. 9400 (data not shown). LDL cholesterol was measured using the LDL-C plus 2nd generation reagents from Roche, Cat. No. 04711220190. Triglycerides were measured using GPO-PAP reagent from Roche, Cat. No. 11730711216 (data not shown).

[2] = tested on: subjects with chronic kidney disease (CKD); assay: Phase 2b study in CKD subjects with anemia, Compound A vs placebo; type: in vivo, human
Protocol: The Hb target was 11 g/dL. The primary efficacy endpoint was the maximum change of Hb from baseline by Week 9.
Subjects were stratified by baseline (BL) total cholesterol (either >200 mg/dL or s 200 mg/dL) and analyzed for mean total cholesterol and LDL-C over the course of treatment.

DIO mice = assay: High cholesterol mouse model, diet induced obesity (DIO) mice; settings: another study, 60 mg/kg three times a week for two weeks, n=10/group, FIG. 24
Text: Ten-week-old male apoE knockout mice (Jackson Laboratories, Bar Harbor, Me.) were fed a normal chow diet (0.02% cholesterol, 13.5% fat by weight; LabDiet). Ten-week-old male diet induced obese mice (DIO Mice, Jackson Laboratories, Bar Harbor, Me.) were fed a high fat diet (0.095% cholesterol, 60% fat by weight; ResearchDiets) starting at six-weeks-old. After 2 weeks of acclimatization, whole blood was collected for baseline measurement before administration of test reagents. All test reagents were administered orally by gavage needle three times a week for 2 weeks for the apoE mice, and three times a week for 4 weeks for the DIO mice. The animals were sacrificed at end of study. Whole blood was collected weekly in Heparin-tube by submandibular bleeding and isolated plasma was stored at −80° C. for measurement of total cholesterol.
DIO mice as described in Example 10 were used to test the effect of various compounds on cholesterol levels. Compound (60 mg/kg) or vehicle was administered to the mice (n=10/group) three times a week for four weeks. A statin compound (rosuvastatin) was also tested. Blood samples were collected at weekly and total cholesterol blood levels were tested.

[3] = six subjects with identical time points, FIG. 7
[4] = orally three times a week for 8 weeks

Chain of PHD3 (Q9H6Z9 whole entry): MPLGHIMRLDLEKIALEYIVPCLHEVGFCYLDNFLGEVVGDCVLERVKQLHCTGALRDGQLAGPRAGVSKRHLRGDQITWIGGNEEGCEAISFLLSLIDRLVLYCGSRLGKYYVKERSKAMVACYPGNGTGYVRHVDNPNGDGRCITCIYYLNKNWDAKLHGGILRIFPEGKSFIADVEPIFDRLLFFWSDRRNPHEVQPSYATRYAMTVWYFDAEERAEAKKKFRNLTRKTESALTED
Chain of PHD1 (Q96KS0 whole entry): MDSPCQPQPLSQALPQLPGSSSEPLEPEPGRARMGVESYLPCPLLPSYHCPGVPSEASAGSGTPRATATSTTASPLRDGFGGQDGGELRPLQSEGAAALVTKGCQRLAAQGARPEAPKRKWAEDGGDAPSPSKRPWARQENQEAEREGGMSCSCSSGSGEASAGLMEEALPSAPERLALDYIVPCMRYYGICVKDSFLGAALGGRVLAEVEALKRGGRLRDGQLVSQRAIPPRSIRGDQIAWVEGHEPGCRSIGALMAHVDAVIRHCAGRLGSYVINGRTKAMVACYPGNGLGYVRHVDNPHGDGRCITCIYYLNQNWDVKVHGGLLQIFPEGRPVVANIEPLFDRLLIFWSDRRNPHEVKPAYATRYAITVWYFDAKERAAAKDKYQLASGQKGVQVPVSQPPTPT

## Cc1nc(C(=O)NCC(=O)O)c(O)c2ccc(Oc3ccccc3)cc12 [Compound A, [(4-Hydroxy-1-methyl-7-phenoxy-isoquinoline-3-carbonyl)-amino]-acetic acid]
PHD1
  IC50: 200 to 2000 nM
PHD3
  IC50: 200 to 2000 nM
[1]; Study 1, FIG. 5
  total cholesterol by baseline total cholesterol ≦200 or >200 mg/dL: total cholesterol is reduced in each group
[1]; all subjects from all cohorts (n=144), during study treatment, FIG. 1
  total cholesterol over time: significant decrease in total cholesterol
[1]; [3]
  LDL, lipid panel: reduce over the course of treatment
  total cholesterol, lipid panel: reduce over the course of treatment
Healthy subjects; 0 hours
  LDL Cholesterol: 95 (36) mg/dL
  Total Cholesterol: 165 (33) mg/dL
Healthy subjects; 1 hours
  LDL Cholesterol: 95 (36) mg/dL
  Total Cholesterol: 164 (30) mg/dL
Healthy subjects; 2 hours
  LDL Cholesterol: 97 (35) mg/dL
  Total Cholesterol: 167 (32) mg/dL
Healthy subjects; 24 hours
  LDL Cholesterol: 96 (36) mg/dL
  Total Cholesterol: 161 (31) mg/dL
Healthy subjects; 72 hours
  LDL Cholesterol: 92 (27) mg/dL
  Total Cholesterol: 154 (26) mg/dL
Healthy subjects; 168 hours
  LDL Cholesterol: 77 (31) mg/dL
  Total Cholesterol: 144 (24) mg/dL
Healthy subjects; 240 hours
  LDL Cholesterol: 78 (29) mg/dL
  Total Cholesterol: 144 (23) mg/dL
Healthy subjects; 408 hours
  LDL Cholesterol: 86 (29) mg/dL
  Total Cholesterol: 152 (22) mg/dL
[2]; baseline (pre-treatment)
  Mean BL LDL-C: 102.60 mg/dL
  Mean BL Total Cholesterol: 166.84 mg/dL
[2]; [4]
  Cholesterol total % change: −18.5%
  Cholesterol total change: -33.9 mg/dL
  HDL-C: decreased
  LDL Cholesterol % change: −23.2%
  LDL cholesterol change: -27.9 mg/dL
  percentage of subjects who achieved Hb response (Hb increase of >1 g/dL from baseline Hb): 86.4%
[2]; subjects stratified by BL total cholesterol ≦200 (n=48) or >200 mg/dL (n=13), FIG. 14
  mean total cholesterol over the course of treatment: reduction
[2]; subjects stratified by BL total cholesterol ≦200 (n=48) or >200 mg/dL (n=13), FIG. 15
  mean LDL-C over the course of treatment: reduction
DIO mice
  total cholesterol levels compared to vehicle treated: statistically significant decrease in total cholesterol levels
